Data: US7265152B2 (ViroPharma Incorporated, priority 2002, dated 2007)
Read-outs that look alike come from different tables or passages of the source.

Columns and labels:
[1] = test system: HCV replicon (BB7 sequence) in Huh-7-Clone A cells; assay: HCV replicon assay: ELISA of NS5A protein in replicon-containing cells (Inhibition of Viral RNA Replication); assay type: cell-based
Excerpt: Antiviral activity of representative compounds of the invention was first evaluated in a human liver-derived cell line (Huh-7-Clone A) containing the HCV replicon (BB7 sequence) (See Lohmann et al. Science. 1999, 285:110-3; Blight K J et al., Science. 2000, 290:1972-4; Pietschmann, T. et al., J. Virol. 2001, 73:1252-1264; and Lohmann, V. et al., J. Virol. 2001, 75:1437-1449). The HCV replicon is a subgenomic viral RNA that expresses the HCV proteins required for its own replication. These proteins include non-structural proteins NS3, NS4A, NS4B, NS5A and NS5B. The replicon also contains a foreign gene encoding a drug-selectable marker (neomycin phosphotransferase) to allow for G418 (neomycin) selection of cells that contain the replicon.
An ELISA (enzyme-linked immunosorbant assay) was used to determine the effect of compounds within the scope of the invention on the amount of HCV NS5A protein produced after a 72-hour incubation of the replicon-containing cells in the presence of varying concentrations of compound. COSTAR® 96-well cell culture plates were used but other known cell culture plates may be used. After incubation, media is removed from wells and the cells are fixed to the assay plate using 0.05% glutaraldehyde. The glutaraldehyde is then washed off using phosphate-buffered saline (PBS) following a 1 hour incubation and cells are blocked for non-specific antibody binding using for example SUPERBLOCK® reagent (blocking buffer) in PBS. The blocking agent is rinsed from the cells with PBS after 1 hour at 37° C. and primary monoclonal antibody is added to each well containing compound. Primary antibody is incubated for 1 hour at 37° C. and rinsed 3 times with PBS containing 0.02% TWEEN-20™ before addition of Horseradish Peroxidase (HRP) conjugated secondary antibody. HRP is incubated for 1 hour at 37° C. and rinsed several times, first with PBS/TWEEN-20™ followed by PBS alone. To quantify peroxidase activity, 3,3′,5, 5′-tetramethylbenzidine (TMB) substrate is added to the plate and after 30 minutes, the plates are read in an ELISA plate reader at an OD of 650 nm. Compound dose response was measured in an 8-point dose curve diluted serially to determine the inhibitory concentration at 50% (EC50 value). […] Ranges of 50% effective concentrations (EC50s) for representative compounds within the scope of this invention are listed in Table 1. Preferred compounds have 50% effective concentrations at about 30 μM or less, more preferred compounds have 50% effective concentrations at about 5 μM or less, and most preferred compounds have 50% effective concentrations at about 0.5 μM or less.

[2] = biological target: T1, HCV NS5B (Hepatitis C virus genotype 1b, UniProt Q9WMX2); assay: Inhibition of viral RNA-dependent RNA polymerase (RdRp), in vitro biochemical assay; parameters: species or system HCV genotype 1b virus (BB7); details: read-out: HCV pol-BB7 IC50
T1 construct: fusion protein, of which the carboxyl terminal 21 amino acids were removed to enhance its solubility; His tag (GSHHHHHH); made in house; host or cells: E. coli
Excerpt: The HCV NS5B-directed RdRp activity was established and characterized in a standard in vitro biochemical assay using a purified HCV NS5B protein derived from the consensus sequence of a patient infected with HCV genotype 1b virus (BB7). (See Blight K J et al., Science. 2000, 290:1972-4). The NS5B consensus sequence was cloned and expressed in E. coli as a histidine tagged (GSHHHHHH) fusion protein, of which the carboxyl terminal 21 amino acids were removed to enhance its solubility.
In addition to evaluating their activity in the replicon assay, representative compounds within the scope of the present invention, as shown in examples 1-453 of Table 1, were also evaluated for antiviral activity using this assay. A measure of the inhibitory activity of compounds of the invention may be expressed as IC50 values. IC50 values represent the concentration of the compound at which 50% of the RdRp activity is inhibited. […] These low concentrations of test compounds required to achieve 50% inhibition of the RdRp activity indicate that the compounds of the invention are effective at inhibiting RNA synthesis by viral RdRp enzymes.

[3] = ranges of EC50 in HCV replicon assay, read-out: Replicon
[4] = HCV replicon assay, ranges of EC50, read-out: Replicon
[5] = HCV NS5B RdRp, BB7, activity class
[6] = HCV replicon assay, ranges of 50% effective concentration (EC50), read-out: Replicon
[7] = HCV NS5B polymerase, BB7 (genotype 1b), values given as range classes A-D
[8] = HCV NS5B RdRp, BB7, class symbols A-D
[9] = purified His-tagged NS5B (BB7), carboxyl terminal 21 amino acids removed
[10] = Hepatitis C virus, Huh-7-Clone A, NS5A ELISA, 72-hour incubation, ranges of EC50, read-out: Replicon
[11] = Hepatitis C virus, HCV replicon assay, ranges of 50% effective concentration (EC50), read-out: Replicon

2-(2,4-Difluoro-phenyl)-5-isopropoxy-benzofuran-3-carboxylic acid methylamide [Example 91]
EC50 [1, 3]: < 30 µM
IC50 ([2]; HCV NS5B RdRp, BB7 genotype 1b): ≤ 500 nM

2-(4-Bromo-phenyl)-5-isopropoxy-benzofuran-3-carboxylic acid methylamide [Example 104]
EC50 [1, 3]: < 10 µM
IC50 ([2]; HCV NS5B RdRp, BB7 genotype 1b): ≤ 500 nM

2-(4-Fluoro-phenyl)-5-hydroxy-6-[methanesulfonyl-(2-oxo-propyl)-amino]-benzofuran-3-carboxylic acid methylamide [Example 354]
EC50 [1, 4]: < 10 µM
IC50 [2, 5]: 500 to 5000 nM

2-(4-Fluoro-phenyl)-5-hydroxy-6-morpholin-4-yl-benzofuran-3-carboxylic acid methylamide [Example 124]
EC50 [1, 3]: < 10 µM
IC50 ([2]; HCV NS5B RdRp, BB7 genotype 1b): 500 to 5000 nM

2-(4-Fluoro-phenyl)-5-isopropoxy-6-ureido-benzofuran-3-carboxylic acid methylamide [Example 135]
EC50 [1, 3]: < 10 µM
IC50 ([2]; HCV NS5B RdRp, BB7 genotype 1b): ≤ 500 nM

2-(4-Fluoro-phenyl)-5-methoxy-6-(2H-[1,2,4]triazol-3-yl)-benzofuran-3-carboxylic acid methylamide [Example 358]
EC50 [1, 4]: < 1 µM
IC50 [2, 5]: ≤ 500 nM

2-(4-Fluoro-phenyl)-5-methoxy-6-(5-methyl-[1,3,4]oxadiazol-2-yl)-benzofuran-3-carboxylic acid methylamide [Example 430]
EC50 [1, 6]: < 10 µM
IC50 [2, 7]: ≤ 500 nM

2-(4-Fluoro-phenyl)-6-(1H-imidazol-2-yl)-5-methoxy-benzofuran-3-carboxylic acid methylamide [Example 296]
EC50 [1, 4]: < 1 µM
IC50 [2, 8]: ≤ 500 nM

2-(4-Fluoro-phenyl)-6-(1H-imidazol-4-yl)-5-methoxy-benzofuran-3-carboxylic acid methylamide [Example 295]
EC50 [1, 4]: < 10 µM
IC50 [2, 8]: ≤ 500 nM

4-Chloro-6-[ethyl-(2-methoxy-acetyl)-amino]-2-(4-fluoro-phenyl)-5-methoxy-benzofuran-3-carboxylic acid methylamide [Example 432]
EC50 [1, 6]: < 10 µM
IC50 [2, 7]: 500 to 5000 nM

5-(3-Cyano-benzyloxy)-2-(4-fluoro-phenyl)-6-(methanesulfonyl-methoxymethyl-amino)-benzofuran-3-carboxylic acid methylamide [Example 447]
EC50 [1, 4]: < 1 µM
IC50 ([2]; HCV NS5B RdRp, BB7 (genotype 1b), reported as class symbols): ≤ 500 nM

6-(3-Amino-pyrrolidin-1-yl)-2-(4-fluoro-phenyl)-5-isopropoxy-2,3-dihydro-benzofuran-3-carboxylic acid methylamide [Example 15]
EC50 ([1]; Huh-7-Clone A, NS5A ELISA, 72-hour incubation, ranges of EC50, read-out: Replicon): < 30 µM
IC50 [2, 9]: 5000 to 30000 nM

CNC(=O)c1c(-c2ccoc2)oc2ccc(OC)cc12 [Example 1, 2-Furan-3-yl-5-methoxy-benzofuran-3-carboxylic acid methylamide]
EC50 ([1]; Hepatitis C virus, 72 h, read-out: Replicon (μM)): < 30 µM
IC50 [2, 9]: 500 to 5000 nM

CNC(=O)c1c(-c2ccc(F)c(F)c2)oc2ccc(OC)cc12 [Example 3, 2-(3,4-Difluoro-phenyl)-5-methoxy-benzofuran-3-carboxylic acid methylamide]
EC50 [1, 10]: < 10 µM
IC50 [2, 9]: ≤ 500 nM

CNC(=O)c1c(-c2ccc(CNC(C)=O)cc2)oc2ccc(OC(C)C)cc12 [Example 4, 2-[4-(Acetylamino-methyl)-phenyl]-5-isopropoxy-benzofuran-3-carboxylic acid methylamide]
EC50 [1, 10]: < 30 µM
IC50 [2, 9]: 500 to 5000 nM

CNC(=O)c1c(-c2ccc(O)cc2)oc2ccc(OC(C)C)cc12 [Example 5, 2-(4-Hydroxy-phenyl)-5-isopropoxy-benzofuran-3-carboxylic acid methylamide]
EC50 [1, 10]: < 10 µM
IC50 [2, 9]: 500 to 5000 nM

CNC(=O)c1c(-c2ccc(F)cc2)oc2cc(N3CCCC3)c(OC(C)C)cc12 [Example 6, 2-(4-Fluoro-phenyl)-5-isopropoxy-6-pyrrolidin-1-yl-benzofuran-3-carboxylic acid methylamide]
EC50 [1, 10]: < 1 µM
IC50 [2, 9]: ≤ 500 nM

CNC(=O)c1c(-c2ccc(F)cc2)oc2ccc(OC(F)F)cc12 [Example 7, 5-Difluoromethoxy-2-(4-fluoro-phenyl)-benzofuran-3-carboxylic acid methylamide]
EC50 [1, 10]: < 10 µM
IC50 [2, 9]: 500 to 5000 nM

CNC(=O)c1c(-c2ccc(F)cc2)oc2cc(NCCOC)c(OC(C)C)cc12 [Example 8, 2-(4-Fluoro-phenyl)-5-isopropoxy-6-(2-methoxy-ethylamino)-benzofuran-3-carboxylic acid methylamide]
EC50 [1, 10]: < 1 µM
IC50 [2, 9]: ≤ 500 nM

CNC(=O)c1c(-c2ccccc2)oc2ccc(C)cc12 [Example 9, 5-Methyl-2-phenyl-benzofuran-3-carboxylic acid methylamide]
EC50 [1, 10]: < 10 µM
IC50 [2, 9]: 500 to 5000 nM

CNC(=O)c1c(-c2ccc(F)cc2)oc2ccc(C)cc12 [Example 10, 5-Methyl-2-(4-fluoro-phenyl)benzofuran-3-carboxylic acid methylamide]
EC50 [1, 10]: < 10 µM
IC50 [2, 9]: 500 to 5000 nM

CNC(=O)c1c(-c2ccccc2)oc2ccc(OCC(F)(F)F)cc12 [Example 11, 2-Phenyl-5-(2,2,2-trifluoro-ethoxy)-benzofuran-3-carboxylic acid methylamide]
EC50 [1, 10]: < 30 µM
IC50 [2, 9]: > 30000 nM

CNC(=O)c1c(-c2ccc(F)cc2)oc2ccc(OC)cc12 [Example 12, 2-(4-Fluoro-phenyl)-5-methoxy-benzofuran-3-carboxylic acid methylamide]
EC50 [1, 10]: < 10 µM
IC50 [2, 9]: ≤ 500 nM

CNC(=O)c1c(-c2ccc(F)cc2)oc2cc(Br)c(OC)cc12 [Example 13, 6-Bromo-2-(4-fluoro-phenyl)-5-methoxy-benzofuran-3-carboxylic acid methylamide]
EC50 [1, 10]: < 1 µM
IC50 [2, 9]: ≤ 500 nM

CNC(=O)c1c(-c2ccccc2)oc2cc(C)c(OC)cc12 [Example 14, 5-Methoxy-6-methyl-2-phenyl-benzofuran-3-carboxylic acid methylamide]
EC50 [1, 10]: < 1 µM
IC50 [2, 9]: ≤ 500 nM

CNC(=O)c1c(-c2ccc(F)cc2)oc2cc(N)c(OC(C)C)cc12 [Example 16, 6-Amino-2-(4-fluoro-phenyl)-5-isopropoxy-benzofuran-3-carboxylic acid methylamide]
EC50 [1, 10]: < 10 µM
IC50 [2, 9]: ≤ 500 nM

CNC(=O)c1c(-c2ccc(F)cc2)oc2cc(NS(C)(=O)=O)c(-c3c(C)noc3C)cc12 [Example 407, 5-(3,5-Dimethyl-isoxazol-4-yl)-2-(4-fluoro-phenyl)-6-methanesulfonylamino-benzofuran-3-carboxylic acid methylamide]
EC50 [1, 11]: < 10 µM

CNC(=O)c1c(-c2ccc(F)cc2)oc2cc(N(C)S(C)(=O)=O)c(OC(C)c3nccs3)cc12 (stereo not drawn) [Example 408, 2-(4-Fluoro-phenyl)-6-(methanesulfonyl-methyl-amino)-5-(1-thiazol-2-yl-ethoxy)-benzofuran-3-carboxylic acid methylamide]
EC50 [1, 11]: < 1 µM
